# Assay results taken from patent US9434759B1, “Cationic steroidal antimicrobial compounds and methods of manufacturing such compounds” (BRIGHAM YOUNG UNIVERSITY, priority 2015, dated 2016).
# Test system: Radiation Induced Oral Mucositis
# Experiment: Syrian Hamster Model Radiation Induced Oral Mucositis Study
# Assay type: in vivo
# Details: 40 Gy radiation Day 0
# Experimental: Various CSA compounds were screened to determine and compare therapeutic effect on oral mucositis. The test was conducted according to a Syrian Hamster Model Radiation Induced Oral Mucositis Study Design as in Table 1. [table] The objective of the study was to identify compounds that can maintain oral mucositis score below 3 in hamster model according to the scoring system in Table 2. [table]
smiles,measurement,setting,value
CCCCCCCCNC(=O)CC[C@@H](C)[C@H]1CC[C@H]2[C@@H]3[C@H](OCCCN)C[C@@H]4C[C@H](OCCCN)CC[C@]4(C)[C@H]3C[C@H](OCCCN)[C@]12C [CSA-192],"reduction in oral mucositis (percent of animal days with mucositis, FIG. 2)","topical T.I.D. Day -1 to 28, 300 or 1000 ppm, mucositis evaluated Day 6 to 28",greater than 90%
same,oral mucositis severity scores (FIG. 3),"topical T.I.D. Day -1 to 28, score 0-5 every 2 days, Day 6 to 28",strongest and longest lasting reduction in oral mucositis
